Data on 14 compounds can be found in PubChem BioAssay (NCI).

Among the test systems are NCI-H460 lung; KM12 colon; NCI-H226 lung; OVCAR-3 ovarian; SF-268 CNS; U251 CNS; COLO 205 colon; SK-OV-3 ovarian; A549 NSCLC; HT29 colon.
Holding throughout (assay): inhibition of tumour cell growth, NCI panel, 48 h

Each structure is given as a SMILES string.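 Protocol summary: plate cells (96-well), add compound at 5 concentrations, incubate 48 h, interpolate endpoints linearly. Here, GI50 denotes the concentration required for 50% inhibition of growth. TGI: concentration producing complete growth inhibition.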 Some results are limits rather than exact numbers.

Regarding `COc1ccc(NC(=O)CC/C(CC(=O)C(C)(C)C)=N\NC(=O)C(N)=O)cc1`, the TGI in the assay on NCI-H460 lung, with KM12 colon, with NCI-H226 lung, in the assay with OVCAR-3 ovarian, in the assay with SF-268 CNS and with U251 CNS was over 100 µM in each case. The TGI with COLO 205 colon, in the assay with SK-OV-3 ovarian, in the assay on A549 NSCLC and in the assay with HT29 colon was over 100 µM throughout.
With `COc1cc2c(cc1OC)C(OC)N(C)c1c-2ccc2cc3c(cc12)OCO3` (centres undefined), the TGI in the assay on NCI-H460 lung is 3.58 µM; in the assay on KM12 colon, 4.45 µM; with NCI-H226 lung it was 4.3 µM; in the assay with OVCAR-3 ovarian, 5.68 µM; in the assay on SF-268 CNS, over 20.9 µM; with U251 CNS it was 1.75 µM. Moreover, the TGI in the assay with COLO 205 colon turned out to be 2.95 µM; in the assay on SK-OV-3 ovarian, 2.53 µM; with HT29 colon, 7.07 µM.
Turning to `Fc1ccc(-c2ncn(C3CCNCC3)c2-c2ccnc(Oc3ccc(F)c(F)c3)n2)cc1`, the GI50 with NCI-H460 lung was 5.42 µM; in the assay on KM12 colon, 6.71 µM; with NCI-H226 lung, 9.34 µM; in the assay with OVCAR-3 ovarian, 6.68 µM; with SF-268 CNS it was 12 µM; in the assay with U251 CNS, 5 µM. The GI50 with COLO 205 colon is 4.55 µM; with SK-OV-3 ovarian, 7.54 µM; in the assay on A549 NSCLC, 9.39 µM; with HT29 colon, 4.36 µM. Besides, the TGI was 13.1 µM in the assay with NCI-H460 lung; over 16.2 µM in the assay on KM12 colon; over 25 µM in the assay on NCI-H226 lung; over 14.4 µM in the assay on OVCAR-3 ovarian; over 25 µM with SF-268 CNS; 11.7 µM in the assay with U251 CNS. Further, the TGI in the assay with COLO 205 colon was 8.47 µM; with SK-OV-3 ovarian, over 16.4 µM; with A549 NSCLC, over 19.4 µM; with HT29 colon, 8.12 µM.
As to `CCOC(=O)C(=O)Nc1ccc(Cl)cc1C`, the TGI with NCI-H460 lung, in the assay on KM12 colon, in the assay on NCI-H226 lung, in the assay on OVCAR-3 ovarian, in the assay on SF-268 CNS and with U251 CNS was over 100 µM each time. Moreover, the TGI in the assay on COLO 205 colon, in the assay with SK-OV-3 ovarian, in the assay with A549 NSCLC and in the assay with HT29 colon was over 100 µM each time.
For the compound `Cc1nc([C@H]2CC[C@H]3[C@@H]4CCC5=CC(=O)CC[C@]5(C)[C@H]4CC[C@]23C)cs1`, the GI50 is 2.67 µM in the assay with NCI-H460 lung; 4.72 µM in the assay on KM12 colon; 31.7 µM in the assay with NCI-H226 lung; over 22.6 µM in the assay on OVCAR-3 ovarian; over 27.2 µM with SF-268 CNS; 5.27 µM with U251 CNS. For the same compound, the GI50 is 5.31 µM in the assay with COLO 205 colon, over 100 µM with SK-OV-3 ovarian, 5.25 µM in the assay with A549 NSCLC and 5.15 µM in the assay with HT29 colon. Moreover, the TGI in the assay with NCI-H460 lung, with KM12 colon, with NCI-H226 lung, in the assay with OVCAR-3 ovarian, with SF-268 CNS and with U251 CNS was over 100 µM in each case. Further, the TGI in the assay with COLO 205 colon, in the assay on SK-OV-3 ovarian, with A549 NSCLC and in the assay on HT29 colon was over 100 µM each time.
Consider `O=C(O)c1ccc(S(=O)(=O)Nc2ccc3oc4c(c3c2)C(=O)CCC4)cc1`, for which the GI50 with NCI-H460 lung, in the assay on KM12 colon, in the assay with NCI-H226 lung, in the assay on OVCAR-3 ovarian, with SF-268 CNS and in the assay with U251 CNS was over 100 µM throughout. The GI50 with COLO 205 colon, with SK-OV-3 ovarian, with A549 NSCLC and in the assay with HT29 colon was over 100 µM in each case. Also, the TGI in the assay with NCI-H460 lung, in the assay on KM12 colon, with NCI-H226 lung, in the assay on OVCAR-3 ovarian, in the assay with SF-268 CNS and in the assay on U251 CNS was over 100 µM throughout. Also, the TGI in the assay with COLO 205 colon, in the assay on SK-OV-3 ovarian, in the assay with A549 NSCLC and in the assay on HT29 colon was over 100 µM throughout.
Regarding `CC(=O)N1c2ccccc2NC2=C(C(=O)N(Cc3ccccc3)C2(C)C)C1c1ccco1` (centres undefined), the GI50 in the assay with NCI-H460 lung is 0.145 µM; with KM12 colon, 0.579 µM; in the assay on NCI-H226 lung it was over 25 µM; in the assay on OVCAR-3 ovarian, 0.208 µM; in the assay on SF-268 CNS, 1.28 µM; in the assay with U251 CNS, 0.665 µM. Moreover, the GI50 in the assay with COLO 205 colon was 0.742 µM; with SK-OV-3 ovarian, 0.786 µM; with A549 NSCLC it was 1.03 µM; with HT29 colon it was 0.755 µM. Besides, the TGI in the assay with NCI-H460 lung is over 21.2 µM; in the assay on KM12 colon, over 16.4 µM; with NCI-H226 lung, over 25 µM; with OVCAR-3 ovarian it was 1.42 µM; with SF-268 CNS, over 25 µM; in the assay on U251 CNS, over 25 µM. Besides, the TGI with COLO 205 colon, in the assay on SK-OV-3 ovarian, in the assay with A549 NSCLC and in the assay with HT29 colon was over 25 µM each time.
For the compound `CN(C)C/C=C/C(=O)Nc1cc2c(Nc3ccc(F)c(Cl)c3F)ncnc2cc1OCCOC(F)F`, the GI50 is 2.34 µM with NCI-H460 lung; 2.04 µM in the assay on KM12 colon; 1.31 µM with NCI-H226 lung; 0.101 µM in the assay with OVCAR-3 ovarian; 0.71 µM in the assay on SF-268 CNS; 1.99 µM in the assay on U251 CNS. The GI50 in the assay with COLO 205 colon is 1.03 µM; with SK-OV-3 ovarian it was under 0.01 µM; in the assay on A549 NSCLC it was 0.596 µM; in the assay with HT29 colon it was 0.422 µM. For the same compound, the TGI with NCI-H460 lung was determined as 10.5 µM; in the assay with KM12 colon, 8.23 µM; in the assay with NCI-H226 lung it was 4.67 µM; in the assay with OVCAR-3 ovarian, 1.73 µM; with SF-268 CNS, 3.89 µM; with U251 CNS it was 9.23 µM. In addition, the TGI in the assay on COLO 205 colon came out at 3.55 µM; with A549 NSCLC, 10.2 µM; in the assay with HT29 colon, 5 µM.
On to `O=C(Cc1csc(-c2nc(CC(=O)NNc3ccccc3)cs2)n1)NNc1ccccc1`, for which the TGI in the assay with NCI-H460 lung is 60.4 µM; in the assay with KM12 colon, over 100 µM; in the assay with NCI-H226 lung, over 100 µM; in the assay with OVCAR-3 ovarian, over 100 µM; in the assay on SF-268 CNS it was over 100 µM; with U251 CNS, over 100 µM. For the same compound, the TGI in the assay on COLO 205 colon was 64 µM; with SK-OV-3 ovarian it was over 100 µM; with A549 NSCLC, over 100 µM; with HT29 colon, over 100 µM.
Turning to `C#CCN(N=O)C(=O)NC(CCCNC(=O)OCc1ccccc1)C(=O)OCc1ccccc1` (centres undefined), the TGI with NCI-H460 lung, in the assay with KM12 colon, in the assay on NCI-H226 lung, in the assay on OVCAR-3 ovarian, in the assay with SF-268 CNS and in the assay on U251 CNS was over 100 µM throughout. The TGI in the assay with COLO 205 colon, in the assay on SK-OV-3 ovarian, in the assay with A549 NSCLC and in the assay on HT29 colon was over 100 µM each time.
Turning to `O=c1c(O)cccc2cc(O)c(O)c(O)c12`, the GI50 in the assay with NCI-H460 lung is 6.86 µM; in the assay on KM12 colon, 26.9 µM; with NCI-H226 lung it was over 100 µM; in the assay with OVCAR-3 ovarian, 6.57 µM; with SF-268 CNS, 5.34 µM; in the assay on U251 CNS, 6.03 µM. The GI50 is over 100 µM with COLO 205 colon, over 100 µM in the assay on SK-OV-3 ovarian, over 100 µM in the assay with A549 NSCLC and 33.2 µM with HT29 colon. Moreover, the TGI in the assay with NCI-H460 lung is over 100 µM; in the assay on KM12 colon, over 100 µM; with NCI-H226 lung, over 100 µM; with OVCAR-3 ovarian, 32.3 µM; in the assay on SF-268 CNS it was over 100 µM; in the assay on U251 CNS, over 100 µM. Besides, the TGI in the assay with COLO 205 colon, in the assay with SK-OV-3 ovarian, with A549 NSCLC and with HT29 colon was over 100 µM each time.
Turning to `CC1(C)OB(O)OC1(C)C`, the TGI in the assay on NCI-H460 lung, in the assay on KM12 colon, with NCI-H226 lung, in the assay on OVCAR-3 ovarian, in the assay with SF-268 CNS and in the assay with COLO 205 colon was over 100 µM each time. The TGI in the assay with SK-OV-3 ovarian, with A549 NSCLC and in the assay with HT29 colon was over 100 µM in each case.
For `Nc1nc2cc3ccc(C4CC(O)C(CO)O4)cc3cc2c(=O)[nH]1` (centres undefined), the GI50 in the assay on NCI-H460 lung, with NCI-H226 lung, in the assay on OVCAR-3 ovarian, in the assay on SF-268 CNS, in the assay with U251 CNS and with COLO 205 colon was over 100 µM in each case. The GI50 in the assay with SK-OV-3 ovarian, with A549 NSCLC and in the assay with HT29 colon was over 100 µM each time. For the same compound, the TGI in the assay on NCI-H460 lung, in the assay with NCI-H226 lung, in the assay with OVCAR-3 ovarian, with SF-268 CNS, with U251 CNS and in the assay with COLO 205 colon was over 100 µM throughout. For the same compound, the TGI in the assay with SK-OV-3 ovarian, in the assay on A549 NSCLC and in the assay on HT29 colon was over 100 µM in each case.
Regarding `CN(/N=C/c1cccc2cccnc12)c1ccc([N+](=O)[O-])cc1`, the TGI in the assay on NCI-H460 lung, in the assay with KM12 colon, in the assay on NCI-H226 lung, in the assay with OVCAR-3 ovarian, with SF-268 CNS and in the assay with COLO 205 colon was over 100 µM throughout. For the same compound, the TGI with SK-OV-3 ovarian, with A549 NSCLC and with HT29 colon was over 100 µM in each case.
